This series can be described thus: passive permeability, PAMPA, ADME assay (AID 1508612). Particulars: pH 7.4, 30.0 min, 50.0 µM.

`CCn1c(C(=O)N2CCCC(C(=O)NCCc3ccc(C)cc3)C2)cc2sccc21` (stereo unspecified) had a Papp greater than 1000 ×10⁻⁶ cm/s.

The molecule `Cc1ccc(NC(=O)N(Cc2cn(C)c3ccccc23)C2CCCCC2)cc1C` displayed a Papp of 20.7 ×10⁻⁶ cm/s.

`O=C(CCCN1CCC2(CC1)C(=O)N(Cc1cccc(F)c1)CN2c1ccccc1)c1ccc(F)cc1` registered a Papp of 21 ×10⁻⁶ cm/s.

Turning to `CC(C)N(CCCNC(=O)Nc1ccc(C(C)(C)C)cc1)C[C@H]1O[C@@H](n2cc(Br)c3c(N)ncnc32)[C@H](O)[C@H]1O`, the Papp came to 472 ×10⁻⁶ cm/s.

The molecule `NC(=O)C1CCN(c2nc(-c3ccc(N)cc3)cs2)CC1` gave a Papp of 87.1 ×10⁻⁶ cm/s.

With `CC[C@@]1(O)C(=O)OCc2c1cc1n(c2=O)Cc2c-1nc1ccccc1c2CCNC(C)C`, the Papp was less than 1 ×10⁻⁶ cm/s.

`Cc1ccc(-n2nc3c(=O)n(CCCC(=O)NCc4ccccc4F)nc(C)c3c2C)cc1` gave a Papp of 920 ×10⁻⁶ cm/s.

`Nc1c(-c2ccccc2)cc[nH]c1=O`: the Papp was 613 ×10⁻⁶ cm/s.

The molecule `COc1ccc(NC2CCCN(C(=O)CCc3ccccc3F)C2)cc1` (stereo unspecified) returned a Papp of 923 ×10⁻⁶ cm/s.

As to `CCC(CC)c1cc([C@H]2CN3CC[C@H]2C[C@@H]3CNS(=O)(=O)c2cccs2)nc(-c2ccncc2)n1`, the Papp was greater than 1000 ×10⁻⁶ cm/s.

The molecule `Cc1ccc(S(=O)(=O)Nc2cnccc2C(=O)Nc2nc(-c3cccnc3)cs2)cc1` gave a Papp of 104 ×10⁻⁶ cm/s.

The molecule `Cc1cc(C)cc(C(=O)Nc2ccc3c(N4CCCC4)ncnc3c2)c1` gave a Papp greater than 1000 ×10⁻⁶ cm/s.

Molecule `CNC(=O)Cn1cc(-c2ccc3c(c2)C(F)CC32NC(=O)N(CC(=O)N(Cc3ccc(F)cc3)[C@@H](C)C(F)(F)F)C2=O)cn1` (stereo partly specified) yielded a Papp of 115 ×10⁻⁶ cm/s.

Regarding `Cn1ccc2c(C(=O)NCCC(N)=O)nc(-c3cccc(CO)c3)cc21`, the Papp is 29.9 ×10⁻⁶ cm/s.

`O=C1NC(=S)NC(=O)C1=Cc1cccn1-c1ccc(O)cc1` gave a Papp of 44.1 ×10⁻⁶ cm/s.

`CN1C(=O)c2ccccc2[S@](=O)c2ccc(C(=O)NCCN3CCCC3)cc21` had a Papp of 94.2 ×10⁻⁶ cm/s.

In turn, `Cc1cnc(-c2ccccc2C2COC2)nc1NCc1ccc(-c2cccnc2)cc1` registered a Papp of 2.87 ×10⁻⁶ cm/s.

As to `COc1ccc(CCN2C(=O)N(c3ccc(F)cc3)C(=O)C2CC(=O)Nc2ccc(F)c(F)c2)cc1` (stereo unspecified), the Papp was found to be 719 ×10⁻⁶ cm/s.

In the case of `CC(C)Oc1ccc(-c2csc(N3CCC(C(N)=O)CC3)n2)cc1`, the Papp was greater than 1000 ×10⁻⁶ cm/s.

`CCN1C(=O)c2ccccc2S(=O)c2ccc(C(=O)NCc3ccccc3)cc21` (stereo unspecified) came in with a Papp of 775 ×10⁻⁶ cm/s.

`Cc1cc(-c2nnc3n2CCCCC3)c(C)n1-c1ccc(Br)cc1` gave an apparent permeability (Papp) greater than 1000 ×10⁻⁶ cm/s.

For `CC(=O)Nc1ccc(N[S+](=O)([O-])c2cccc(NC(=O)c3[nH]c(C)c(C(C)=O)c3C)c2)cc1`, the Papp turned out to be 20.6 ×10⁻⁶ cm/s.

`Cc1cc(C)c(C(=O)Nc2cccc([S+](=O)([O-])N3CCCCC3)c2)[nH]1` returned a Papp of 936 ×10⁻⁶ cm/s.

For `COc1ccc(C2Nc3ccccc3C(=O)N2Cc2ccco2)cc1` (stereo unspecified), the Papp was 799 ×10⁻⁶ cm/s.

Take `CC(C)NC(=O)C1CCN(C(=O)c2cc3sccc3n2Cc2ccc(Cl)cc2)CC1`: the Papp was greater than 1000 ×10⁻⁶ cm/s.

Take `Cc1ccc(-n2nc3c(=O)n(CCCC(=O)NC(C)c4ccccc4)nc(C)c3c2C)cc1` (stereo unspecified): the Papp worked out at 695 ×10⁻⁶ cm/s.

With `Cc1cc(-c2nnc3n2CCCCC3)c(C)n1-c1ccc(Cl)cc1`, the Papp is greater than 1000 ×10⁻⁶ cm/s.

For `Cc1ccc(S(=O)(=O)Nc2cnccc2C(=O)Nc2ccc(-c3nn[nH]n3)cc2)cc1`, the Papp was 1.4 ×10⁻⁶ cm/s.

As to `CN1C(=O)c2ccccc2[S@](=O)c2ccc(C(=O)NCc3ccc(Cl)cc3)cc21`, the Papp was greater than 1000 ×10⁻⁶ cm/s.

For the molecule `COc1ccc(CN2CCN(C(=O)c3cc4c(s3)CCC4)CC2)cc1`, the Papp was found to be 997 ×10⁻⁶ cm/s.

With `CCCCN(CC)CCNC(=O)c1cc2c(-c3ccc(Cl)cc3)nn(C)c2s1`, the apparent permeability coefficient (Papp) was greater than 1000 ×10⁻⁶ cm/s.

In turn, `c1ccc2c(Nc3ccc4nc[nH]c4c3)nc(-c3ccncc3)nc2c1` displayed a Papp of 16.7 ×10⁻⁶ cm/s.

`Cc1noc(C)c1-c1csc(N2CCC(C(N)=O)CC2)n1` registered a Papp of 58.9 ×10⁻⁶ cm/s.

As for `CSc1ccccc1N1CCN(CCCCCC(=O)NC2CCCc3ccccc32)CC1` (stereo unspecified), the Papp is greater than 1000 ×10⁻⁶ cm/s.

As for `Fc1ccc(Cc2nc3nccc(-c4cccs4)n3n2)cc1`, the Papp was greater than 1000 ×10⁻⁶ cm/s.

Molecule `COc1ccc(-n2nc(C3CCCN(C(=O)c4ccc(C)cc4)C3)[nH]c2=O)cc1` (stereo unspecified) registered a Papp of 685 ×10⁻⁶ cm/s.

As for `Cc1ccccc1C(C(=O)NC1CCCC1)N(C(=O)Cn1cnc2ccccc21)c1cccc(F)c1` (stereo unspecified), the Papp was greater than 1000 ×10⁻⁶ cm/s.

As for `CCN(CCCOc1ccc2c(Nc3cc(CC(=O)Nc4cccc(F)c4)[nH]n3)ncnc2c1)CCOP(=O)(O)O`, the Papp is less than 1 ×10⁻⁶ cm/s.

`CC(C)Oc1ccc(-c2ccc(=O)n(CC(=O)NCCc3ccccc3)n2)cc1` gave a Papp greater than 1000 ×10⁻⁶ cm/s.

`COc1ccc(CCNc2ncnc3onc(C)c23)c(OC)c1` registered a Papp of 752 ×10⁻⁶ cm/s.

`Fc1ccc(Nc2nc(-c3ccncc3F)nc3ccccc23)cc1F`: the Papp was 325 ×10⁻⁶ cm/s.

On to `Nc1ncc(S(=O)(=O)N2CCN(c3ccccc3)CC2)cn1`, for which the Papp was determined as 13.5 ×10⁻⁶ cm/s.

`CCc1cccc(NC(=O)c2c(C)oc3nc(C)nc(N4CCCC4)c23)c1`: the Papp is greater than 1000 ×10⁻⁶ cm/s.

Regarding `Nc1c(C(=O)N2CCCCC2)sc(=S)n1-c1ccccc1`, the Papp is greater than 1000 ×10⁻⁶ cm/s.

For `O=C(O)c1ccncc1Nc1nn(CCN2CCC(F)(F)CC2)c2ccc(F)cc12`, the Papp was determined as 1.2 ×10⁻⁶ cm/s.

`CCOC(=O)N1CCN(Cc2nc3cc(NC(=O)CC(C)C)ccc3n2C(C)C)CC1` showed a Papp of 613 ×10⁻⁶ cm/s.
